For this assay, the target named is T1, human granzyme B (Homo sapiens, UniProt P10144).
T1 construct: from tissue; host or cells: human lymphocytes
As to the kind of experiment: Competitive binding assay of human granzyme B with Compound ^18F-21-Al radioligand. The following applies: competition with 20 nM Compound ^18F-21-Al, human lymphocyte GZB, 37° C., 90 minutes. How it is done:
Purpose: To perform competitive binding assays with human granzyme B using Compound ^18F-21-Al to determine IC50 values of potential granzyme B ligands
Initial Plate Preparation (including total binding and non-specific binding): • 1. 78 μL of reaction buffer, as described above, is added to each well in a 96 well plate • 2. For wells used to examine total binding (defined as the binding of the radioligand in the absence of competitors), 2 μL of DMSO is added to give 1% final DMSO concentration for all wells • 3. For wells used to examine non-specific binding (defined as the binding of the radioligand in the presence of 10 μM 21), 2 μL of 1 mM Compound 21 is added to give a final concentration of 10 μM
• 1. Granzyme B (GZB, human lymphocyte) is diluted to 0.5 μg/mL using reaction buffer as described above • 2. 100 μL of 0.5 μg/mL diluted human GzB is added to each well, giving 50 ng per well and a final concentration of 0.25 μg/mL
• 1. DMSO or water is added to the respective compound vial to make 1 mM compound stock solution • 2. 1 mM compound stock solution is serially diluted by ½ log (3.16 fold) by adding 18.5 μL of compound stock to 40 μL of DMSO, mixing by pipetting up and down, and transferring 18.5 μL of the mixture to 40 μL of DMSO. This process is repeated to create 10 dilution points for test compounds. • 3. For wells used to examine ligand binding competition, 2 μL of each dilution is dispensed into the 96 well plates prepared as described above, giving a further dilution of 1/100.
• 1. 200 nM of Compound ^18F-21-Al (10× radioligand stock) is prepared in reaction buffer, aiming for approximately 2 million CPM per 20 μL of solution (input). • 2. 20 μL of radioligand stock is dispensed into each well to give a final concentration per well of 20 nM.
• 1. All 96 wells should have a final volume of 200 μL, and the assay plates are incubated at 37° C. for 90 minutes. • 2. All samples from the assay plates are transferred to MultiScreenHTS FB plates that have been presoaked in PBS buffer, pH 7.4, and filtered using a vacuum manifold. An additional 150 μL of PBS buffer is added to each well in the assay plates and combined to ensure transfer of any remaining samples • 3. MultiScreenHTS FB plates are washed 3× with 150 μL of PBS buffer. • 4. All filters are separated and transferred to individual tubes using Multiscreen punch tips and the Millipore multiple punch apparatus • 5. The sample set is analyzed using the Wizard 2480 automatic gamma-counter [Perkin Elmer] through a [^18F]-specific profile. Values are reported as decay-corrected counts per minute (CPM). • 6. Resulting CPM values are normalized and converted to % inhibition by the following equation:
[formula] • *the total bound fraction is typically less than 10% of the added radioligand under such assay conditions. • Resulting % inhibition values were plotted using the software GraphPad Prism 8.4.3 using the One site—Fit log IC50 equation to determine the IC50 value for each ligand.
[formula] • Y=% Inhibition • X=Log concentration of the cold competing ligand (M) • A=minimum Y (0%) • B=maximum Y (100%) • Log IC50=Log concentration of cold competing ligand (M) at half-way between minimum and maximum Y

One may read the IC50 as the concentration needed to halve the response being measured.

T1 sequence (P10144 21-247): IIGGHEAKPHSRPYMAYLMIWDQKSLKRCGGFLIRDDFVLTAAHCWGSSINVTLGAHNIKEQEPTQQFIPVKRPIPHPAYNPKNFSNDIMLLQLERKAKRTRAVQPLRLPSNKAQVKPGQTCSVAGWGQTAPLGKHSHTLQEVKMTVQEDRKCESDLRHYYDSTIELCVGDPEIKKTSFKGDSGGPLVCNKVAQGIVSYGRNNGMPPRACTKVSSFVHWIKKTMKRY

On to `CC[C@H](C)[C@H](NC(=O)CCNC(=O)CCNC(=O)[C@@H](CCC(=O)O)NC(=O)CN1CCC(CN2CCN3CCN(CC2)CC(=O)[O][Al]([F])[O]C(=O)C3)CC1)C(=O)N[C@H]1CCc2cccc3c2N(C1=O)[C@H](C(=O)NC1CC(=O)OC1O)C3` (stereo partly drawn) [Compound 1-Al, 2,2′-(7-((1-((4R,15S,16S)-4-(2-carboxyethyl)-15-(((3S,6S)-6-((2-hydroxy-5-oxotetrahydrofuran-3-yl)carbamoyl)-4-oxo-1,2,3,4,6,7-hexahydroazepino[3,2,1-hi]indol-3-yl)carbamoyl)-16-methyl-2,5,9,13-tetraoxo-3,6,10,14-tetraazaoctadecyl)piperidin-4-yl)methyl)-1,4,7-triazonane-1,4-diyl)diacetic acid, aluminum fluoride complex (1:1)], for which the IC50 worked out at 5.7 nM. `CC[C@H](C)[C@H](NC(=O)COCCNC(=O)[C@@H](CCC(=O)O)NC(=O)[C@@H](CCC(=O)O)NC(=O)CN1CCN(C(=O)CN2CCN3CCN(CC2)CC(=O)[O][Al]([F])[O]C(=O)C3)CC1)C(=O)N[C@H]1CCc2cccc3c2N(C1=O)[C@H](C(=O)NC1CC(=O)OC1O)C3` (stereo partly drawn) [Compound 10-Al, 2,2′-(7-(2-(4-((4R,7R,16S,17S)-4,7-bis(2-carboxyethyl)-16-(((3S,6S)-6-((2-hydroxy-5-oxotetrahydrofuran-3-yl)carbamoyl)-4-oxo-1,2,3,4,6,7-hexahydroazepino[3,2,1-hi]indol-3-yl)carbamoyl)-17-methyl-2,5,8,14-tetraoxo-12-oxa-3,6,9,15-tetraazanonadecyl)piperazin-1-yl)-2-oxoethyl)-1,4,7-triazonane-1,4-diyl)diacetic acid, aluminum fluoride complex (1:1)]: the IC50 was found to be 3.6 nM.

As to `CC[C@H](C)[C@H](NC(=O)CCNC(=O)CCNC(=O)[C@@H](CCC(=O)O)NC(=O)CN1CCN(C(=O)CN2CCN3CCN(CC2)CC(=O)[O][Al]([F])[O]C(=O)C3)CC1)C(=O)N[C@H]1CCc2cccc3c2N(C1=O)[C@H](C(=O)NC1CC(=O)OC1O)C3` (stereo partly drawn) [Compound 12-Al, 2,2′-(7-(2-(4-((4R,15S,16S)-4-(2-carboxyethyl)-15-(((3S,6S)-6-((2-hydroxy-5-oxotetrahydrofuran-3-yl)carbamoyl)-4-oxo-1,2,3,4,6,7-hexahydroazepino[3,2,1-hi]indol-3-yl)carbamoyl)-16-methyl-2,5,9,13-tetraoxo-3,6,10,14-tetraazaoctadecyl)piperazin-1-yl)-2-oxoethyl)-1,4,7-triazonane-1,4-diyl)diacetic acid, aluminum fluoride complex (1:1)], the IC50 was 4.2 nM. Under `CC[C@H](C)[C@H](NC(=O)CCNC(=O)CN(CC(=O)O)C(=O)CCNC(=O)CN1CCC(CN2CCN3CCN(CC2)CC(=O)[O][Al]([F])[O]C(=O)C3)CC1)C(=O)N[C@H]1CCc2cccc3c2N(C1=O)[C@H](C(=O)NC1CC(=O)OC1O)C3` (stereo partly drawn) [Compound 3-Al, 2,2′-(7-((1-((15S,16S)-7-(carboxymethyl)-15-(((3S,6S)-6-((2-hydroxy-5-oxotetrahydrofuran-3-yl)carbamoyl)-4-oxo-1,2,3,4,6,7-hexahydroazepino[3,2,1-hi]indol-3-yl)carbamoyl)-16-methyl-2,6,9,13-tetraoxo-3,7,10,14-tetraazaoctadecyl)piperidin-4-yl)methyl)-1,4,7-triazonane-1,4-diyl)diacetic acid, aluminum fluoride complex (1:1)] stands 4.7 nM; under `CC[C@H](C)[C@H](NC(=O)CCNC(=O)CCNC(=O)[C@H](CC(C(=O)O)C(=O)O)NC(=O)CN1CCN(C(=O)CN2CCN3CCN(CC2)CC(=O)[O][Al]([F])[O]C(=O)C3)CC1)C(=O)N[C@H]1CCc2cccc3c2N(C1=O)[C@H](C(=O)NC1CC(=O)OC1O)C3` (stereo partly drawn) [Compound 15-Al, 2-((2S)-2-(2-(4-(2-(4,7-bis(carboxymethyl)-1,4,7-triazonan-1-yl)acetyl)piperazin-1-yl)acetamido)-3-((3-((3-(((2S,3S)-1-(((3S,6S)-6-((2-hydroxy-5-oxotetrahydrofuran-3-yl)carbamoyl)-4-oxo-1,2,3,4,6,7-hexahydroazepino[3,2,1-hi]indol-3-yl)amino)-3-methyl-1-oxopentan-2-yl)amino)-3-oxopropyl)amino)-3-oxopropyl)amino)-3-oxopropyl) malonic acid, aluminum fluoride complex (1:1)], 2.5 nM; under `CC[C@H](C)[C@H](NC(=O)CCNC(=O)CCNC(=O)CN(CC(=O)O)C(=O)CN1CCN(C(=O)CN2CCN3CCN(CC2)CC(=O)[O][Al]([F])[O]C(=O)C3)CC1)C(=O)N[C@H]1CCc2cccc3c2N(C1=O)[C@H](C(=O)NC1CC(=O)OC1O)C3` (stereo partly drawn) [Compound 13-Al, 2,2′-(7-(2-(4-((15S,16S)-3-(carboxymethyl)-15-(((3S,6S)-6-((2-hydroxy-5-oxotetrahydrofuran-3-yl)carbamoyl)-4-oxo-1,2,3,4,6,7-hexahydroazepino[3,2,1-hi]indol-3-yl)carbamoyl)-16-methyl-2,5,9,13-tetraoxo-3,6,10,14-tetraazaoctadecyl)piperazin-1-yl)-2-oxoethyl)-1,4,7-triazonane-1,4-diyl)diacetic acid, aluminum fluoride complex (1:1)], 4.2 nM. As for `CC[C@H](C)[C@H](NC(=O)CCNC(=O)CCNC(=O)CN(CC(=O)O)C(=O)CN1CCC(CN2CCN3CCN(CC2)CC(=O)[O][Al]([F])[O]C(=O)C3)CC1)C(=O)N[C@H]1CCc2cccc3c2N(C1=O)[C@H](C(=O)NC1CC(=O)OC1O)C3` (stereo partly drawn) [Compound 5-Al, 2,2′-(7-((1-((15S,16S)-3-(carboxymethyl)-15-(((3S,6S)-6-((2-hydroxy-5-oxotetrahydrofuran-3-yl)carbamoyl)-4-oxo-1,2,3,4,6,7-hexahydroazepino[3,2,1-hi]indol-3-yl)carbamoyl)-16-methyl-2,5,9,13-tetraoxo-3,6,10,14-tetraazaoctadecyl)piperidin-4-yl)methyl)-1,4,7-triazonane-1,4-diyl)diacetic acid, aluminum fluoride complex (1:1)], the IC50 came out at 5.7 nM. Under `CC[C@H](C)[C@H](NC(=O)CC[C@H](NC(=O)CN1CCN(C(=O)CN2CCN3CCN(CC2)CC(=O)[O][Al]([F])[O]C(=O)C3)CC1)C(=O)O)C(=O)N[C@H]1CCc2cccc3c2N(C1=O)[C@H](C(=O)NC1CC(=O)OC1O)C3` (stereo partly drawn) [Compound 17-Al, 2,2′-(7-(2-(4-(2-(((1S)-1-carboxy-4-(((2S,3S)-1-(((3S,6S)-6-((2-hydroxy-5-oxotetrahydrofuran-3-yl)carbamoyl)-4-oxo-1,2,3,4,6,7-hexahydroazepino[3,2,1-hi]indol-3-yl)amino)-3-methyl-1-oxopentan-2-yl)amino)-4-oxobutyl)amino)-2-oxoethyl)piperazin-1-yl)-2-oxoethyl)-1,4,7-triazonane-1,4-diyl)diacetic acid, aluminum fluoride complex (1:1)] stands 2.7 nM; under `CC[C@H](C)[C@H](NC(=O)CCNC(=O)CCNC(=O)[C@@H](CCC(=O)O)NC(=O)[C@@H](CCC(=O)O)NC(=O)CN1CCN(C(=O)CN2CCN3CCN(CC2)CC(=O)[O][Al]([F])[O]C(=O)C3)CC1)C(=O)N[C@H]1CCc2cccc3c2N(C1=O)[C@H](C(=O)NC1CC(=O)OC1O)C3` (stereo partly drawn) [Compound 16-Al, 2,2′-(7-(2-(4-((4R,7R,18S,19S)-4,7-bis(2-carboxyethyl)-18-(((3S,6S)-6-((2-hydroxy-5-oxotetrahydrofuran-3-yl)carbamoyl)-4-oxo-1,2,3,4,6,7-hexahydroazepino[3,2,1-hi]indol-3-yl)carbamoyl)-19-methyl-2,5,8,12,16-pentaoxo-3,6,9,13,17-pentaazahenicosyl)piperazin-1-yl)-2-oxoethyl)-1,4,7-triazonane-1,4-diyl)diacetic acid, aluminum fluoride complex (1:1)], 4.2 nM.

Values taken from patent US20260158177A1, “COMPOUNDS SPECIFIC TO GRANZYME B AND USES THEREOF” (CYTOSITE BIOPHARMA INC., priority 2021, published 2026).
